Data reported in patent US10988542B2, “Chimeric antigen receptors with integrated controllable functions” (CELLECTIS, priority 2015, dated 2021).
Read-outs that look alike come from different tables or passages of the source. Blank lines part the entries; values can stand above or below the compound they belong to.

Key:
FKBP-FRB* scCAR = biological target: T1, FKBP-FRB* scCAR (Homo sapiens, UniProt P62942); experiment: AP21967 switch-on scCAR surface detection (Fc-tagged recombinant CD123); assay type: cell-based; conditions: FKBP-FRB* domains; FIG. 7
T1 construct: expressed in transfected cells
T1 sequence (P62942 with tags, fused parts or gaps): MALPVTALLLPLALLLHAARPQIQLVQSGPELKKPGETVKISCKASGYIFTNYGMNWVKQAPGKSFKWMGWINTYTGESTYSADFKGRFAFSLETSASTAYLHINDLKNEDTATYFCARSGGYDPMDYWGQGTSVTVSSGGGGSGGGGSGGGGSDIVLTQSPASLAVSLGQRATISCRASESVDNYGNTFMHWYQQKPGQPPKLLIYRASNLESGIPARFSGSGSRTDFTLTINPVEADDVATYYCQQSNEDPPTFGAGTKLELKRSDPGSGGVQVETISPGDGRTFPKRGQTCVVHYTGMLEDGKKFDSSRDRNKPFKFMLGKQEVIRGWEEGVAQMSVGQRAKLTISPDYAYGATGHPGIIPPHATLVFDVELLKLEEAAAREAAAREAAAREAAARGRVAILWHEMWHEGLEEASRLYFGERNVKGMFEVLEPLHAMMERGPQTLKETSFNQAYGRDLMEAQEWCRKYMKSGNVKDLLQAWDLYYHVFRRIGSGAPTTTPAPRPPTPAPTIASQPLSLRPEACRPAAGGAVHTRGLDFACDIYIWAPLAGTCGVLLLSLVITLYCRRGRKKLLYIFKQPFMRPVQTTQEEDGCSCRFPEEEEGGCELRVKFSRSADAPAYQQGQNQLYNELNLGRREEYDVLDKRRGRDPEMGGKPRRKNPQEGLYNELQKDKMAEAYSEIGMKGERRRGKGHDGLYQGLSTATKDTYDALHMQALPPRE
From the text: The CAR extracellular domains (alpha chain) presented in example 2 were used as template to prepare plasmid DNA encoding single chain CARs (scCARs). The CD8 alpha transmembrane domain (SEQ ID NO: 32), the intracytoplasmic signalling region of the ζ-chain of the CD3-T cell receptor (SEQ ID NO: 28) and the signalling domains from co-stimulatory 4-1BB (CD137) (SEQ ID NO:31) were used to complete the CARs. scCARs were assemble by Golden Gate cloning using round of restriction and ligation, according to standard molecular biology procedures, leading to pCLS27572 (FKBP-FRB*) (SEQ ID NO:65), pCLS27603 (FKBP) (SEQ ID NO:66), pCLS27604 (FRB*) (SEQ ID NO:67). The respective amino acid sequences encoded by these constructs are shown in SEQ ID NOs: 68 to 70.
Primary labelling for the detection of the scCARs was performed with Fc-tagged recombinant CD123 (Lake Pharma) in PBS FBS2%, EDTA 2 mM, azide 0.1% for 20 min at 4° C. followed by a two washing steps with PBS FBS2% EDTA 2 mM azide 0.1%. […] Following the extracellular labelling, the cell viability was monitored using the efluor450 or efluor780 (ebioscience) in PBS for 20 min 4° C., followed by a washing step with PBS FBS2% EDTA 2 mM azide 0.1% and fixed in PFA 2%.

MOLM13-Luc tumour cells = experiment: Antitumor activity of inducible CD123 CAR+ T cells with AP21967 in NOG mice injected with MOLM13-Luc; assay type: in vivo; conditions: switch-on mcCAR-CD123 T cells IV plus AP21967 3 mg/kg/inj IP twice daily; FIG. 11
Description: The anti-tumor activity of human T-cells expressing a switch-on mcCAR-CD123 as described in Example 1, was assessed in NOG mice intravenously injected with MOLM13-Luc tumour cells.
To establish the MOLM13-Luc cell line, MOLM13 cells (DSMZ ACC 554) have been transduced with a lentivirus encoding the GFP and the firefly luciferase (amsbio LVP438-PBS). The GFP-positive cells have been selected with Neomycin (ref 10131-027, Gibco, Life Technologies, Saint-Aubin, France). MOLM13-Luc cells are grown in suspension at 37° C. in a humidified atmosphere (5% CO2, 95% air) into culture medium RPMI 1640 containing 2.05 mM L-glutamine (ref: BE12-702F, Lonza) supplemented with 15% fetal bovine serum (ref: 3302, Lonza, Verviers, Belgium), 100 U/mL Penicillin and 100 μg/mL Streptomycin (ref: DE17-602E, Lonza). The cells are counted in a hemocytometer and their viability is assessed by 0.25% trypan blue exclusion assay and are passed twice weekly (0.8 millions/mL) in fresh culture medium.
The day of injection to mice, frozen human T-cells transformed with the switch-on mcCAR-CD123 CAR are assessed to be within a range of 1-2.106 live cells per mL. […]
Mice were monitored daily with respect to their body weight measurements, clinical and mortality records, and treatment were recorded on Vivo Manager® database (Biosystemes, Dijon, France).

Daudi CD19 positive = experiment: Flow cytometry-based cytotoxicity assay of FKBP-FRB* mcCAR CD19 T-cells with AP21967; assay type: cell-based; conditions: for EC50: Homo sapiens, Daudi, dose response 0, 1, 5, 10, 33, 100 nM
Description: The cytolytic activity of engineered T-cells endowed with the FKBP-FRB* mcCAR CD19 from example 2, was assessed using a flow cytometry-based cytotoxicity assay. In this assay target cells presenting the CAR target antigen (Daudi CD19 positive) are labelled with CellTrace™ CFSE or and control cells with CellTrace™ violet.
The whole cell population was recovered, washed in PBS and labeled with eFluor780 viability marker before being fixed by 2% PFA. Fixed cells were analyzed by flow cytometry to determine their viability. Flow cytometry and data analysis were performed as described in example 1.
The level of targeted cell killing also correlated with the level of CAR detection (FIG. 9).

FKBP-FRB* mcCAR CD19 = biological target: T2, FKBP-FRB* mcCAR CD19 (Homo sapiens, UniProt P62942); experiment: AP21967 switch-on: surface detection and dose response, CD19 targeting engineered CAR (Fab'2 detection); assay type: cell-based
T2 construct: expressed in transfected cells; host or cells: T cells, mRNA electroporation
T2 sequence (P62942 with tags, fused parts or gaps): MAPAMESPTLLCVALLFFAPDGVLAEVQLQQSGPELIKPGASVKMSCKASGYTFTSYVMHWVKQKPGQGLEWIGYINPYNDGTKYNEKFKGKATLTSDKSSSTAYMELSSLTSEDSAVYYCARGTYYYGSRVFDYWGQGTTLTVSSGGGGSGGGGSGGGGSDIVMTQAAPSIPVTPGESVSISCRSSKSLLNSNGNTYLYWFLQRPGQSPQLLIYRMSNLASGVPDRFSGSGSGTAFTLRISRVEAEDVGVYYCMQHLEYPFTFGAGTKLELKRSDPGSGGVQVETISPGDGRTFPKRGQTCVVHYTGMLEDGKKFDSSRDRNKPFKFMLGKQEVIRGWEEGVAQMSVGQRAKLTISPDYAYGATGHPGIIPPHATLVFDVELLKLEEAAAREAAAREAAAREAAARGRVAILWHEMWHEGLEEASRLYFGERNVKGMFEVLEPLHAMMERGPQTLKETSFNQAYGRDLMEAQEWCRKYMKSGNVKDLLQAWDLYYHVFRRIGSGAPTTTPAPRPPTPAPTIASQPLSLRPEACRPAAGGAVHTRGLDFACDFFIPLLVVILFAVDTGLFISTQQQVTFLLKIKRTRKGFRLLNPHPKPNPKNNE
T2 sequence (Q01362 with tags, fused parts or gaps partner limits assumed): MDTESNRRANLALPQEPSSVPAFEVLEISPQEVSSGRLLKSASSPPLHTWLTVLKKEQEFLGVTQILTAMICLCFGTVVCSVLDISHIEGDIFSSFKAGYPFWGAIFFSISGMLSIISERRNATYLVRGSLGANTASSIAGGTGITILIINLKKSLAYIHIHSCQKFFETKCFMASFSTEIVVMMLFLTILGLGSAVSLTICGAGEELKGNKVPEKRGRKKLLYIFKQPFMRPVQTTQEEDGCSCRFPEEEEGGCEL
T2 sequence (P30273 with tags, fused parts or gaps partner limits assumed): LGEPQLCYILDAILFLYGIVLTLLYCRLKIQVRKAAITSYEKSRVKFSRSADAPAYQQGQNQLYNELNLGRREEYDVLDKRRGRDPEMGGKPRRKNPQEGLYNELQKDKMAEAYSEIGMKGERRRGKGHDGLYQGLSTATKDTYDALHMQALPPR

[1] = system: FKBP/FRB-mcCAR and FRB/FKBP-mcCAR constructs; experiment: Rapamycin switch-on: surface detection of mcCAR with FKBP and FRB in the α-chain (flow cytometry); assay type: cell-based; conditions: rapamycin 100 nM, 20 h vs no rapamycin
From the text: All constructs originated from the pCLS24707 (SEQ ID NO: 38) which encode the α-chain (SEQ ID NO: 39), β-chain (SEQ ID NO: 40) and γ-chain (SEQ ID NO: 41) of the multichain CAR (mcCAR). The sequences coding for the FRB domain (SEQ ID NO: 2) and FKBP domain (SEQ ID NO: 1) were synthetized de novo (GeneCust). The scFV, hinge-transmembrane-intracytoplasmic alpha chain domain, the FRB and the FKBP were further amplified by PCR to generate golden gate assembly compatible fragments (SEQ ID NO: 42 to 45). In addition an FRB-FKBP and an FKBP-FRB fragment were generated (SEQ ID NO: 46 to 47) using a four-EAAAR-linker (SEQ ID NO: 19) or a −GS-4x-EAAAR-linker (SEQ ID NO: 20) and standard molecular biology procedures. […]
All individual chains were amplified by PCR using oligo pairs α-chain-F/α-chain-R, β-chain-F/β-chain-R and γ-chain-F/γ-chain-R (SEQ ID NO: 56 to 61) prior to mRNA synthesis. mRNA encoding the different α-chains, β-chain, γ-chain were in vitro transcribed from the PCR product and polyadenylated using the mMessage mMachine T7 Ultra kit (Life technologies) following the manufacturer's instructions. RNAs were purified with RNeasy columns (Qiagen), eluted in cytoporation medium T and quantified by measuring absorbance at 260 nm using a Nanodrop ND-1000 spectrophotometer. […]

FKBP-FRB* mcCAR = biological target: T3, FKBP-FRB* mcCAR (Homo sapiens, UniProt P62942); experiment: Competition between AP21967 and tacrolimus, surface presentation of engineered CAR; assay type: cell-based; conditions: AP21967 10 nM fixed, tacrolimus 0-500 nM, 20 hours
T3 construct: expressed in transfected cells; host or cells: T cells, mRNA electroporation
T3 sequence (Q01362 with tags, fused parts or gaps partner limits assumed): as the sequence (Q01362 with tags, fused parts or gaps partner limits assumed) above
T3 sequence (P30273 with tags, fused parts or gaps partner limits assumed): as the sequence (P30273 with tags, fused parts or gaps partner limits assumed) above

surface exposition of scCAR in presence of AP21967 (FKBP-FRB* scCAR): improved surface exposition
surface exposition of mcCAR in presence of AP21967 (FKBP-FRB* mcCAR CD19; FKBP-FRB* domains in α-chain, FIG. 4): improved surface exposition
concentration of maximum signal induction (FKBP-FRB* mcCAR CD19; dose response, surface detection): 100 nM
SMILES: CO[C@H]1[C@@H](O)[C@H](C)C[C@H](C)/C=C/C=C/C=C(\C)[C@@H](c2c[nH]c3c(C)cccc23)C[C@@H]2CC[C@@H](C)[C@@](O)(O2)C(=O)C(=O)N2CCCC[C@H]2C(=O)O[C@H]([C@H](C)C[C@@H]2CC[C@@H](O)[C@H](OC)C2)C[C@H](O)[C@H](C)/C=C(\C)[C@H]1O [AP21967]
survival of the mice (MOLM13-Luc tumour cells): increased the survival
level of target cell killing versus AP21967 dose (Daudi CD19 positive; 0, 1, 5, 10, 33, 100 nM, FIG. 5B): correlated
cytolytic activity of CAR T cells in presence of AP21967 (Daudi CD19 positive; AP21967 100 nM vs ethanol, E/T 20:1, 5 h, FIG. 5A): improved switched-on cytolytic activity
EC50 (Daudi CD19 positive; FIG. 5B, read-out: EC50 of cytolytic capacity (approximate)): ~10 nM
EC50 (Daudi CD19 positive; FIG. 5B, read-out: EC50 of cytolytic capacity (value in parentheses)): 12.7 nM

SMILES: CO[C@H]1C[C@@H]2CC[C@@H](C)[C@@](O)(O2)C(=O)C(=O)N2CCCC[C@H]2C(=O)O[C@H]([C@H](C)C[C@@H]2CC[C@@H](O)[C@H](OC)C2)CC(=O)[C@H](C)/C=C(\C)[C@@H](O)[C@@H](OC)C(=O)[C@H](C)C[C@H](C)/C=C/C=C/C=C/1C [rapamycin]
improvement of surface detection considering the MFI [1]: up to 15 fold
improvement of surface detection considering the percentage of positive cell [1]: ≤ 3 fold

surface presentation/detection of the engineered CAR with increasing tacrolimus (FKBP-FRB* mcCAR): decreased surface detection
SMILES: C=CC[C@@H]1/C=C(\C)C[C@H](C)C[C@H](OC)[C@H]2O[C@@](O)(C(=O)C(=O)N3CCCC[C@H]3C(=O)O[C@H](/C(C)=C/[C@@H]3CC[C@@H](O)[C@H](OC)C3)[C@H](C)[C@@H](O)CC1=O)[C@H](C)C[C@@H]2OC [tacrolimus]
surface presentation/detection of the engineered CAR with increasing tacrolimus (FKBP-FRB* mcCAR; listed as Tacrolimus): possibility to tune the surface presentation
